{"source": "patent US20130052162A1", "about": "“BOOSTING IMMUNE DEFENSE BY UPREGULATING CCAAT/ENHANCER BINDING PROTEIN EPSILON” (CEDARS-SINAI MEDICAL CENTER, priority 2010, published 2013)", "key": {"[1]": {"test_system": "CEBPE promoter region", "assay": "ChIP: histone H3 acetylation at CEBPE promoter in BMDM", "assay_type": "cell-based, mouse", "details": "WT BMDM, 1 mM NAM, 6-12 h, vs untreated, densitometry", "description": "ChIP assay kit (Upstate Biotechnology, Lake Placid, N.Y.) was used, and chromatin was prepared for IP as instructed by the manufacturer. The sonicated chromatin was immunoprecipitated with either 5 μg of anti-acetylated histone H3 antibody or normal rabbit IgG antibody as negative control (Upstate Biotechnology). Immunoprecipitated DNA was subsequently analyzed by PCR using primers specific for the CEBPE promoter region; input chromatin was analyzed for β-actin mRNA as a positive control. The optimal reaction conditions for PCR were determined for each primer pair. Primers were denatured at 95° C. for 1 min and annealed at 60° C. for 1 min, followed by elongation at 72° C. for 1 min; each product was amplified 35 cycles. PCR products were analyzed by 2.5% agarose/ethidium bromide gel electrophoresis. […] The primers used for ChIP analysis were: human CEBPE 5′-GCTTTGGCCAAGCCCAGGGA-3′ (forward) (SEQ ID NO: 9), 5′-TGCTGGGCTCCACCTACCCC-3′ (reverse) (SEQ ID NO: 10); human β-actin: 5′-CTCCTCGGGAGCCACACGCA-3′ (forward) (SEQ ID NO: 1), 5′-TAGGGGAGCTGGCTGGGTGG-3′ (reverse) (SEQ ID NO: 12); murine CEBPE: 5′-TGAGGCTGCAGCTTGCCTGG-3′ (forward) (SEQ ID NO: 13), 5′-ACCAAGCTACCCCTGGCCCT-3′ (reverse) (SEQ ID NO: 14), murine β-actin: 5′-ACCTGTTACTTTGGGAGTGGCAAGC-3′ (forward) (SEQ ID NO: 15), 5′-GTCGTCCCAGTTGCTAACAATGCC-3′ (reverse) (SEQ ID NO: 16)."}, "[2]": {"test_system": "K. pneumoniae", "assay": "Human peripheral whole blood killing assay, K. pneumoniae", "assay_type": "cell-based", "details": "NAM-pretreated human blood, 3 h of infection", "description": "This well described phagocytic survival assay has been previously reported^42. Bacteria was pelleted, washed twice, diluted to the specified inoculum in 25 μl PBS (without Ca^2+ and Mg^2+), and immediately mixed with 75 μl of freshly drawn human or murine peripheral whole blood in sterile heparinized 2 mL round-bottom Eppendorf tubes. When required, murine plasma was obtained by centrifugation of heparinized whole blood at 2000×g for 15 min at RT. Reactions (performed in minimum in triplicate) were incubated at 37° C. for 1-3 h on a rotary shaker, at which time ten-fold serial dilutions were plated on THA for enumeration of surviving CFU.\nWhen required, freshly drawn human or murine peripheral blood was pretreated with NAM (˜0.1 mM or ˜10 mM) or PBS (without Ca^2+ and Mg^2+), prior to inoculation with bacteria.\nParticipants in the inventors' study included 15 healthy humans with a negative history of infection or antibiotic treatments in the prior 4 weeks. Peripheral blood was collected from individuals in a fasting condition. Polymorph-prep (Axis-Shield, Oslo, Norway) was used for the isolation of PMNs according to the manufacturer's protocol."}, "[3]": {"test_system": "S. aureus", "assay": "Effect of NAM on growth and viability of S. aureus", "assay_type": "cell-based, Staphylococcus aureus", "details": "6 h", "description": "The inventors assessed whether NAM, at the concentrations used in the study, adversely affect the growth and viability of S. aureus. PBS was chosen as an inert non-growth medium, and THB was chosen as a suitable growth medium for S. aureus. Seventy-five microliters of NAM (1 mM and 10 mM final concentrations; in either THB or PBS) or THB or PBS alone (respective controls) were placed in sterile 2 mL round-bottom Eppendorf tubes, and then inoculated with S. aureus (˜1×10^4 CFU/mL in 25 μl of PBS or THB) and immediately briefly vortexed. Triplicate reactions were incubated at 37° C. for 1 h, 3 h, and 6 h on a rotary shaker at which time ten-fold serial dilutions were plated on THIA for enumeration of CFU.\nIn a different assay, S. aureus (˜1×10^8 CFU/mL in THB) was incubated with or without 50 mM NAM. This concentration represents the equivalent molarity of NAM used in the in vivo experiments. Triplicate 1 mL reactions were incubated at 37° C. on a rotary shaker and at various time points (6 h, 12 h, and 24 h) ten-fold serial dilutions were plated on THA for enumeration of CFU. This assay was performed on two independent occasions using inocula generated from three separate bacterial cultures."}, "[4]": {"assay": "CBC of peripheral whole blood of WT mice treated in vivo with NAM", "set-up": "species or system mouse", "description": "WT mice treated in vivo with NAM (250 mg/kg/day; i.p.) or PBS (control) for a) 24 h, b) 48 h, and c) 72 h. Then, peripheral whole blood was removed from each of the mice and CBCs were performed. […] (Table 2A-C)"}, "[5]": {"assay": "Ex vivo hematological study (CBC) of human donor blood", "assay_type": "cell-based", "details": "1 mM NAM ex vivo", "description": "Blood from human donors (no antibiotics within the prior 2 weeks, no immune-boosting supplements, and otherwise healthy) was collected in ETDA tubes. CBC was performed on each blood sample at time zero. Each blood sample was then treated ex vivo with NAM (1 mM) or PBS (control) for 24 h in 6-well non-treated plates at 37 C, 5% CO2 and 95%% humidity with gentle rocking. After 24 h of treatment, CBCs were performed on each blood sample. […] (Table 3)"}, "[6]": {"details": "human trials, patients undergoing radiotherapy; cited from earlier work"}, "[7]": {"details": "24 h post-treatment, 250 mg/kg/d, individual mice, 250 mg/kg/day"}, "[8]": {"details": "t = 24 h, individual human donors #1-5"}}, "note": "Several values for one entry are separate records, joined by “and”; a condition that tells them apart may be missing. Equal entries are not always repeated. Entries after “also recorded” stand apart in the source; their conditions may differ."}
{"smiles": "NC(=O)c1cccnc1", "note": "[NAM, Nicotinamide]", "values": [{"measurement": "increase in histone H3 acetylation at the CEBPE promoter", "setting": "[1]", "result": 5, "unit": "fold"}, {"measurement": "K. pneumoniae CFU recovered / outcome, NAM- vs PBS-treated blood", "setting": "[2]", "result": "improved the outcome of infection; also recorded: Significantly less CFU"}, {"measurement": "direct anti-staphylococcal activity (CFU vs control)", "setting": "[3]; 1 mM and 10 mM NAM in THB or PBS, 1 h, 3 h, no phagocytic cells", "result": "no direct anti-staphylococcal activity; also recorded: No differences"}, {"measurement": "direct anti-staphylococcal activity (CFU vs control)", "setting": "[3]; 50 mM NAM in THB, 12 h, 24 h", "result": "No difference in CFU"}, {"measurement": "Hematological Abnormalities", "setting": "[4]; 24 h post-treatment, 250 mg/kg/d, individual mice", "result": "Normal"}, {"measurement": "LY", "setting": "[4]; [7]", "result": "3.97 K/uL and 1.89 K/uL and 3.84 K/uL and 76.92% and 67.88% and 71.36%"}, {"measurement": "MO", "setting": "[4]; [7]", "result": "0.18 K/uL and 0.28 K/uL and 3.77% and 6.47% and 5.28%"}, {"measurement": "NE", "setting": "[4]; [7]", "result": "0.95 K/uL and 0.65 K/uL and 1.00 K/uL and 18.47% and 23.40% and 18.67%"}, {"measurement": "WBC", "setting": "[4]; [7]", "result": "5.16 K/uL and 2.78 K/uL and 5.38 K/uL"}, {"measurement": "WBC, Mean", "setting": "[4]; 24 h post-treatment, 250 mg/kg/d, mean of 10 mice", "result": 3.63, "unit": "K/uL"}, {"measurement": "Hematological Abnormalities", "setting": "[4]; 48 h post-treatment, 250 mg/kg/d, individual mice", "result": "Normal"}, {"measurement": "WBC", "setting": "[4]; 48 h post-treatment, 250 mg/kg/d, individual mice, 250 mg/kg/day", "result": "6.34 K/uL and 1.86 K/uL and 3.30 K/uL and 4.64 K/uL and 2.70 K/uL"}, {"measurement": "WBC, Mean", "setting": "[4]; 48 h post-treatment, 250 mg/kg/d, mean of 5 mice", "result": 3.77, "unit": "K/uL"}, {"measurement": "Hematological Abnormalities", "setting": "[4]; 72 h post-treatment, 250 mg/kg/d, individual mice", "result": "Normal"}, {"measurement": "WBC", "setting": "[4]; 72 h post-treatment, 250 mg/kg/d, individual mice, 250 mg/kg/day", "result": "2.20 K/uL and 4.08 K/uL and 5.66 K/uL and 2.24 K/uL and 3.62 K/uL and 6.22 K/uL and 3.06 K/uL and 5.48 K/uL"}, {"measurement": "WBC, Mean", "setting": "[4]; 72 h post-treatment, 250 mg/kg/d, mean of 8 mice", "result": 4.07, "unit": "K/uL"}, {"measurement": "CBCs, NAM- vs PBS-treated mice", "setting": "[4]; mouse, in vivo", "result": "No differences in CBCs"}, {"measurement": "CBCs, NAM- vs PBS-treated and untreated blood", "setting": "[5]; 24 h", "result": "No differences in CBCs"}, {"measurement": "ABS MONOS", "setting": "[5]; [8]", "result": "0.6 1000/UL and 0.5 1000/UL and 0.2 1000/UL and 0.1 1000/UL (2×)"}, {"measurement": "ABS POLYS", "setting": "[5]; [8]", "result": "5.4 1000/UL and 2.9 1000/UL and 5.2 1000/UL and 4.2 1000/UL and 4.3 1000/UL"}, {"measurement": "MONOS", "setting": "[5]; [8]", "result": "7% and 9% and 4% and 2% (2×)"}, {"measurement": "POLYS", "setting": "[5]; [8]", "result": "61% and 51% and 76% and 63% and 70%"}, {"measurement": "WBC COUNT", "setting": "[5]; [8]", "result": "8.9 1000/UL and 5.6 1000/UL and 6.9 1000/UL and 6.7 1000/UL and 6.1 1000/UL"}, {"measurement": "plasma concentration routinely achieved", "setting": "[6]", "result": 1, "unit": "mM"}]}
